The record followed here is the METLIN SMRT retention time set (Domingo-Almenara et al. 2019).

The nature of the data set: gradient 5% acetonitrile 3 min, to 50% in 2 min, to 85% in 15 min, held 3 min, 100 µL/min. The settings on record: column: Zorbax Extend-C18 2.1 x 50 mm; eluents: water / acetonitrile, 0.1% formic acid. In short, it runs like this: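 Mixtures of ~100 pure standards were chromatographed on a Zorbax Extend-C18 column (2.1 × 50 mm, 1.8 μm) at 100 μL/min using water and acetonitrile, each with 0.1% formic acid. Detection used a quadrupole time-of-flight mass spectrometer in positive and negative ionization mode, and data collection spanned 3 months. Retention time was obtained from adduct peaks picked computationally and each checked manually.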
`COc1ccc(C(=O)Nc2cccn3c(C)nnc23)cc1F` registered an RP-LC retention time of 667 s.

`CCOC(=O)c1ccc(N2C=C(C(=O)N3CCCC3)S(=O)(=O)c3ccccc32)cc1` showed an RP-LC retention time of 813 s. For `COc1ccc2c(c1)C1(CCN(C(=O)c3ccc(Cl)cc3)C1)C(=O)N2` (stereo not given), the RP-LC retention time stood at 767 s.

Regarding `Fc1ccc(F)c(CN2CC(Oc3ccc(-c4noc(-c5ccncc5)n4)cc3)C2)c1`, the RP-LC retention time worked out at 726 s. With `CCN1CCCC1CNC(=O)C1CCN(S(=O)(=O)c2ccc3c(ccn3CC)c2)CC1` (stereo not given), the RP-LC retention time stood at 664 s. `CN(CCc1noc(COc2cccc(C(F)(F)F)c2)n1)C(=O)c1ccco1`: the RP-LC retention time was 919 s. Molecule `c1ccc(-c2nnc(Cc3ccc4c(c3)OCO4)o2)cc1` came in with an RP-LC retention time of 894 s. `Cn1c(N2CCCN(C(=O)CCn3c(C4CCCCC4)nc4ccccc43)CC2)cc(=O)n(C)c1=O` returned an RP-LC retention time of 610 s. Consider `O=C1[C@H]2CN(Cc3cccc(F)c3F)C[C@H]2C(=O)N1Cc1ccc2c(c1)OCO2`, for which the RP-LC retention time worked out at 919 s. The molecule `CCN1CCCn2cc(S(=O)(=O)Nc3ccc(OC)c(Cl)c3)cc2C1=O` had an RP-LC retention time of 740 s. Under `Cc1ccc(N2CCN(CC(O)COc3ccc([N+](=O)[O-])cc3)CC2)cc1` (stereo not given) stands 601 s.

`Cc1ccccc1OCC(=O)NC1CCN(Cc2c(C)noc2C)CC1` displayed an RP-LC retention time of 615 s.

The molecule `COc1ccc(-c2cc(OC)c3cc(NC(=O)c4cccs4)ccc3n2)cc1` displayed an RP-LC retention time of 726 s. As to `C=CCc1ccccc1OCC(O)CNC(C)C` (stereo not given), the RP-LC retention time amounted to 706 s.

In turn, `CCCc1ccc(S(=O)(=O)N2CCC(c3noc(-c4cccc(C)c4)n3)CC2)cc1` showed an RP-LC retention time of 1370 s.

Molecule `COc1ccc(C)cc1NC(=O)c1cc(C(C)C)n2nccc2n1` registered an RP-LC retention time of 1270 s. On to `O=C(CCC1CCCC1)N1CCC(c2noc(-c3ccc(Cl)cc3)n2)CC1`, for which the RP-LC retention time turned out to be 1320 s. Take `Cc1ccc(CNC(=O)c2ccc3ccnc(N4CCN(c5ccc(F)cc5)CC4)c3c2)o1`: the RP-LC retention time was found to be 828 s. In the case of `CCOc1cc(-c2ccc(F)cc2)nc2ccc(NS(=O)(=O)c3cccc(C#N)c3)cc12`, the RP-LC retention time amounted to 816 s.

Consider `Cc1cc(C)c2c(N3CCCCC3)nc(C(=O)NC(C)c3cccnc3)nc2n1` (stereo not given), for which the RP-LC retention time amounted to 568 s. In turn, `Cc1cccc(NC(=O)Cn2cnc3nc(N4CCC(C(=O)NC5CC5)CC4)sc3c2=O)c1` registered an RP-LC retention time of 658 s. The molecule `Cc1ccccc1N1CCN(CCc2nnc3n2CCCC3)CC1` returned an RP-LC retention time of 573 s. With `COc1ccc(C(=O)Nc2ccc3nc(N4CCN(CCC#N)CC4)cc(C(=O)O)c3c2)cc1` the figure was 599 s.

`O=C(Cc1ccccc1F)N1CCc2[nH]cnc2C1c1ccccc1` (stereo not given) showed an RP-LC retention time of 632 s. With `CCCn1cnc2ccc(-c3noc(-c4cccc(F)c4)n3)cc21` the figure was 873 s; with `COc1ccc(Cn2nc3ccc(S(=O)(=O)N4CCCCCC4)cn3c2=O)cc1F`, 681 s; with `CCOc1ccc(C(=O)NCc2nnc3n2CCCC3)cc1OCC`, 674 s. For `COC(=O)C1=C(NC(=O)COc2ccc(Cl)cc2Cl)CCS1`, the RP-LC retention time worked out at 1110 s.

With `COc1ccc2c(c1)C1(CCN(C(=O)Nc3cccc(F)c3)C1)C(=O)N2C` (stereo not given), the RP-LC retention time stood at 811 s. For `CCOc1ccc(C(=O)N2CCC3(CC2)NC(=O)c2ccc(Cl)cc2N3)cc1`, the RP-LC retention time was determined as 768 s. As for `CCN1C(=O)COc2cc(-c3noc(C(=O)N4CCN(C5CCCCC5)CC4)n3)ccc21`, the RP-LC retention time turned out to be 652 s. With `COc1ccc(CCC(=O)NC(C)C(=O)N2CCN(c3ccccn3)CC2)cc1` (stereo not given) the figure was 606 s; with `CC(C)n1c(=O)sc2cc(S(=O)(=O)N3CCC(C(=O)Nc4cccc(Cl)c4)CC3)ccc21`, 1060 s; with `O=C(NCCCN1CCCC1=O)C(=O)Nc1nccs1`, 578 s. With `Cc1cc(C)nc(Nc2nc(C(=O)Nc3ccc(N4CCOCC4)cc3)cs2)n1`, the RP-LC retention time is 746 s. The molecule `COc1ccc(C2CC(=O)N(c3cccc(Cl)c3)C(=O)C2)cc1` yielded an RP-LC retention time of 939 s. `COCCCN1C(=O)CC(N2CCN(c3ccc(F)cc3)CC2)C1=O` (stereo not given) had an RP-LC retention time of 666 s. In turn, `COCCc1noc(C2CN(C(=O)c3ccsc3)C2)n1` returned an RP-LC retention time of 654 s.

With `O=c1c(O[C@@H]2OC([C@H](O)CO)[C@H](O)[C@H]2O)c(-c2ccc(O)c(O)c2)oc2cc(O)cc(O)c12` (stereo not given in full), the RP-LC retention time was 641 s. `CN(C1CCc2nn(C)c(=O)n2CC1)S(=O)(=O)c1cccc(C#N)c1` (stereo not given) showed an RP-LC retention time of 667 s. Consider `CCNc1cc(N2CCCC(CCC(=O)NCCOC)C2)ncn1` (stereo not given), for which the RP-LC retention time stood at 580 s.

`COc1ccc(OC)c(Nc2c(-c3ccc4c(c3)OCO4)nc3cnccn23)c1` yielded an RP-LC retention time of 829 s. `CCOc1ccc(CC(=O)N2CCCC2c2c(C)noc2C)cc1` (stereo not given) showed an RP-LC retention time of 902 s.

The molecule `c1ccc(-n2nnnc2SCCNCc2ccc3c(c2)OCCO3)cc1` showed an RP-LC retention time of 634 s. `Cc1cc(C)cc(C(=O)OC2C[C@H]3CC[C@@H](C2)N3C)c1` (stereo not given in full) displayed an RP-LC retention time of 729 s. `CCCNC(=O)c1cn(CCC)nc1S(=O)(=O)N1CCN(c2ccccc2OCC)CC1` returned an RP-LC retention time of 1080 s. For the molecule `c1ccc(N2CCN(Cc3cccn3-c3nnc(N4CCOCC4)s3)CC2)nc1`, the RP-LC retention time came out at 756 s. The molecule `CCOc1ccc(NC(=O)C2CC(=O)N(CCc3c[nH]c4ccc(Cl)cc34)C2)cc1` (stereo not given) showed an RP-LC retention time of 870 s. With `O=c1c(S(=O)(=O)N2CCCC2)cccn1Cc1nc(-c2ccccc2Cl)no1`, the RP-LC retention time was 808 s. The molecule `COc1ccc(-c2nc3cc(C)ccn3c2Nc2ccc(C)cc2)cc1` yielded an RP-LC retention time of 761 s. Molecule `O=S(=O)(CCCOc1ccc(F)cc1)NC1CC1` yielded an RP-LC retention time of 785 s. With `COc1ccccc1CC(=O)N1CCC(Nc2ncnc3c2CCC3)C1` (stereo not given) the figure was 570 s. For the molecule `COc1ccc(F)cc1S(=O)(=O)N1CCn2c(nn(C)c2=O)C1`, the RP-LC retention time came to 654 s. In the case of `COCC(=O)N(C1CCOCC1)C1CCN(S(=O)(=O)c2ccc(F)cc2)CC1`, the RP-LC retention time stood at 749 s. On to `Cc1cc(=O)n(CC(=O)Nc2ccccc2Cl)c(N2CCCCC2)n1`, for which the RP-LC retention time was found to be 718 s. With `CN(C)C(=O)c1cc2c(s1)CCC(C(=O)NCc1ccc(N3CCOCC3)cc1)C2` (stereo not given) the figure was 655 s.

Molecule `CCOC(CNCc1cc(C)c2[nH]c3ccccc3c2c1C)OCC` had an RP-LC retention time of 812 s.

As for `CCOc1ccc(NC(=O)c2nc(N(C)C)c3c(C)cc(C)nc3n2)cc1`, the RP-LC retention time turned out to be 661 s.

`Cc1c(Cl)cccc1Nc1c(-c2ccc(N3CCOCC3)cc2)nc2ncccn12` came in with an RP-LC retention time of 758 s. As for `CCOc1cc(=O)n2c(c1C(=O)Nc1ccc(C#N)cc1)CCCC2`, the RP-LC retention time was 708 s.

`Cc1ccccc1Oc1nccnc1N1CCCC(C(=O)NC2CCCCCC2)C1` (stereo not given) showed an RP-LC retention time of 1120 s.

`Cn1nc(C(=O)Nc2ccccc2)c2c1CCN(C(=O)NCc1ccco1)C2` returned an RP-LC retention time of 760 s. With `O=C(C1CC(=O)N(c2n[nH]c3ccccc23)C1)N1CCC(c2nc3ccccc3[nH]2)CC1` (stereo not given), the RP-LC retention time worked out at 591 s. As for `CCOc1nccnc1N1CCC(NC(=O)c2ccc(C#N)cc2)C1` (stereo not given), the RP-LC retention time is 650 s. Molecule `Cc1ccc(CNC(=O)N2CC=C(c3cn(C)c4ncccc34)CC2)cc1` returned an RP-LC retention time of 818 s. `CCc1ccc(N2CC(c3nc(-c4cc(OC)c(OC)c(OC)c4)no3)CC2=O)cc1` (stereo not given) showed an RP-LC retention time of 988 s. Molecule `Clc1cncc(N2CCNCC2)n1` registered an RP-LC retention time of 614 s. For `CCc1ccc(NC(=O)Cc2c(C)nn(-c3nc(-c4ccc(Cl)cc4)cs3)c2C)cc1`, the RP-LC retention time is 972 s. `O=C(NC(CO)C(O)c1ccc([N+](=O)[O-])cc1)C(Cl)Cl` (stereo not given) displayed an RP-LC retention time of 735 s. Under `Cc1cc(N2CCN(S(=O)(=O)c3cc(F)ccc3F)CC2)nc(NC2CCCCC2)n1` stands 821 s.

Molecule `CCCCOc1ccc(C(=O)NCCc2cn3ccc(C)cc3n2)cc1` registered an RP-LC retention time of 588 s.

`Cn1nc(-c2nnc(-c3ccccc3)o2)c2c1CCN(S(=O)(=O)c1ccc3c(c1)CCC3)C2` had an RP-LC retention time of 688 s. Molecule `O=C(O)C1CCN(c2nc3ccc(-c4cccs4)nc3s2)CC1` gave an RP-LC retention time of 837 s. Molecule `COC(=O)c1cccc(C(=O)NC2CCN(C(=O)c3cc(-c4cccs4)[nH]n3)CC2)c1` came in with an RP-LC retention time of 733 s.

As for `COCCN1C(=O)CCc2cc(NS(=O)(=O)c3c(C)cccc3Cl)ccc21`, the RP-LC retention time is 795 s. `COc1ccc(NC(=O)NCCc2nc3cccnc3n2C2CCCC2)cc1OC` registered an RP-LC retention time of 647 s. For `CN(C)c1nn(CC(=O)NCc2ccc3c(c2)OCO3)c(=O)c2ccccc12`, the RP-LC retention time stood at 765 s. In turn, `C[C@H]1CCC/C=C/[C@@H]2C[C@H](O)C[C@H]2[C@H](O)/C=C/C(=O)O1` came in with an RP-LC retention time of 782 s. The molecule `CC(C)c1cccc(NC(=O)Cn2cnc3nc(N4CCCC(C(=O)NC5CC5)C4)sc3c2=O)c1` (stereo not given) came in with an RP-LC retention time of 723 s.

Take `CCCC(NC(=O)c1cccc(F)c1)C(=O)Nc1nc2ccccc2[nH]1` (stereo not given): the RP-LC retention time stood at 693 s.
